From patent publication US20140248655A1, “QUANTITATIVE SOFT AGAR COLONY FORMATION ASSAY USING TETRAZOLIUM THAT GENERATES WATER-SOLUBLE FORMAZAN” (KAGOSHIMA UNIVERSITY, priority 2011, published 2014)

Tested on: DU145 cells
Assay: Method of the invention: soft agar colony formation assay with WST-1, DU145
Format: cell-based, human
Text: The […] compounds used may be able to function as ideal antitumor agents that have PCA-1 inhibitory effects, fewer (and less severe) side effects (cytotoxicity), and high tumor-shrinking effects.

## CC(=O)O[C@H]1C(=O)[C@@]2(C)[C@H]([C@H](OC(=O)c3ccccc3)[C@]3(O)C[C@H](OC(=O)[C@H](O)[C@@H](NC(=O)c4ccccc4)c4ccccc4)C(C)=C1C3(C)C)[C@]1(OC(C)=O)CO[C@@H]1C[C@@H]2O [Paclitaxel]
DU145 10,000 cells/well, culture 1 week, concentrations of FIG. 2
  cell viability (%): lowered by Paclitaxel as an anticancer agent in a concentration-dependent manner
Medium containing 100 μmol of Paclitaxel, culture 7 days, FIG. 1
  OD value (OD405) versus number of seeded cells: the OD value was low, and it was not correlated with the number of cells
